Source: patent US6620833B1, “Substituted benzimidazoles, production and use thereof as agents for combating parasitic protozoas” (Bayer Aktiengesellschaft, priority 1998, dated 2003)

Experiments:
Type in all cases: in vivo
Eimeria acervulina = assay: Cage experiment on coccidiosis/chicks, E. acervulina readout
Eimeria maxima = assay: Cage experiment on coccidiosis/chicks, E. maxima readout
Eimeria tenella = assay: Cage experiment on coccidiosis/chicks, E. tenella readout
[1] = system: Eimeria acervulina, Eimeria maxima and Eimeria tenella; assay: Cage experiment on coccidiosis/chicks, mixed experimental infection; details: for dropping scores / lesion score: assessment 0 to 6; for mortality n: dead animals/animals employed
Procedure: 8 to 12 day-old male chicks (e.g. LSL Brinkschulte/Senden) which have been reared coccidia-free receive the compounds according to the invention (test substances) in the concentration indicated in ppm with the feed from 3 days before (day −3) infection (=a.i.) until 8 (9) days after infection (=p.i.). 3 animals are kept in each cage. One or more groups of this type are employed per dose. Infection is carried out by means of a stomach tube directly into the crop with approximately 100,000 sporulated oocysts of Eimeria acervulina and with approximately 30,000 oocysts each of E. maxima and 40,000 sporulated oocysts of E. tenella. These are highly virulent strains. The exact infection dose is adjusted so that, if possible, one of three experimentally infected untreated chicks dies due to the infection. For assessment of the efficacy, the following criteria are taken into account: weight increase from the start of the experiment to the end of the experiment, death rate due to infection, macroscopic assessment of the faeces with respect to diarrhoea and excretion of blood on days 5 and 7 p.i. (assessment 0 to 6), macroscopic assessment of the intestinal mucosa, in particular of the appendices (assessment 0 to 6) and the oocyst excretion as well as the proportion (in %) of the oocysts sporulating in the course of 24 hours. The number of oocysts in the faeces was determined with the aid of a McMaster counting chamber (see Engelbrecht and coworkers “Parasitologische Arbeitsmethoden in Medizin and Veterinärmedizin” [Parasitological Working Methods in Medicine and Veterinary Medicine], Akademie-Verlag, Berlin (1965)). The individual findings are related to the untreated non-infected control groups and a total score is calculated (cf. A. Haberkorn (1986), pp. 263 to 270 in Research in Avian Coccidiosis ed L. R. McDougald, L. P. Joyner, P. L. Long, Proceedings of the Georgia Coccidiosis Conference, Nov. 18-20, 1985. Athens/Georgia USA).
In the column “ppm”, the concentration of the active compound employed in the feed is indicated in ppm.
In the column “mortality” the percentage of the dead animals is indicated under % and the number of dead animals/animals employed in the experiment is indicated under n.
In the column “weight % of not inf. control” the ratio of the weight of the treated animals to the weight of the non-infected control group is indicated.
In the columns “dropping scores”, “lesion score” and “oocyst control”, individual details of the action are given.
In the column “% efficacy”, the total score is assessed; 0% means no action, 100% means full action.

SMILES: CO[C@@H]1[C@@H](OC)[C@H](C)[C@@](O)(CC(=O)O)O[C@H]1[C@H](C)[C@H]1O[C@@]2(CC[C@@](C)([C@H]3CC[C@@](C)([C@@H]4O[C@@H]([C@H]5O[C@](C)(O)[C@H](C)C[C@@H]5C)C[C@@H]4O[C@@H]4C[C@H](OC)[C@@H](OC)[C@H](C)O4)O3)O2)C[C@H](O)[C@H]1C [MAD, Maduramicin, reference compound]
- oocyst in % of inf. control ac. (Eimeria acervulina; Table 2, 1 ppm in feed): 8%
- oocyst in % of inf. control ac. (Eimeria acervulina; Table 2, 2 ppm in feed): 8%
- oocyst in % of inf. control ac. (Eimeria acervulina; Table 2, 3 ppm in feed): 1%
- oocyst in % of inf. control max. (Eimeria maxima; Table 2, 1 ppm in feed): 100%
- oocyst in % of inf. control max. (Eimeria maxima; Table 2, 2 ppm in feed): 100%
- oocyst in % of inf. control max. (Eimeria maxima; Table 2, 3 ppm in feed): 0%
- oocyst in % of inf. control ten. (Eimeria tenella; Table 2, 1 ppm in feed): 30%
- oocyst in % of inf. control ten. (Eimeria tenella; Table 2, 2 ppm in feed): 45%
- oocyst in % of inf. control ten. (Eimeria tenella; Table 2, 3 ppm in feed): 3%
- % efficacy tot. ([1]; Table 2, 1 ppm in feed): 73%
- mortality % ([1]; Table 2, 1 ppm in feed): 0%
- oocyst in % of inf. control tot. ([1]; Table 2, 1 ppm in feed): 46%
- weight % of not inf. control ([1]; Table 2, 1 ppm in feed): 93%
- dropping scores ([1]; Table 2, 1 ppm in feed): 1
- lesion score ([1]; Table 2, 1 ppm in feed): 2
- mortality n ([1]; Table 2, 1 ppm in feed): 0/3
- % efficacy tot. ([1]; Table 2, 2 ppm in feed): 84%
- mortality % ([1]; Table 2, 2 ppm in feed): 0%
- oocyst in % of inf. control tot. ([1]; Table 2, 2 ppm in feed): 51%
- weight % of not inf. control ([1]; Table 2, 2 ppm in feed): 114%
- dropping scores ([1]; Table 2, 2 ppm in feed): 0
- lesion score ([1]; Table 2, 2 ppm in feed): 2
- mortality n ([1]; Table 2, 2 ppm in feed): 0/3
- % efficacy tot. ([1]; Table 2, 3 ppm in feed): 100%
- mortality % ([1]; Table 2, 3 ppm in feed): 0%
- oocyst in % of inf. control tot. ([1]; Table 2, 3 ppm in feed): 1.3%
- weight % of not inf. control ([1]; Table 2, 3 ppm in feed): 112%
- dropping scores ([1]; Table 2, 3 ppm in feed): 0
- lesion score ([1]; Table 2, 3 ppm in feed): 0
- mortality n ([1]; Table 2, 3 ppm in feed): 0/3

SMILES: CC[C@@]1([C@@H]2O[C@@H]([C@H]3O[C@@](O)(CO)[C@H](C)C[C@@H]3C)C[C@@H]2C)CC[C@H]([C@]2(C)CC[C@]3(C[C@H](O)[C@@H](C)[C@@H]([C@@H](C)[C@@H](OC)[C@H](C)C(=O)O)O3)O2)O1 [Mon., Monensin, reference compound]
- oocyst in % of inf. control ac. (Eimeria acervulina; Table 1, 25 ppm in feed): 98%
- oocyst in % of inf. control ac. (Eimeria acervulina; Table 1, 50 ppm in feed): 44%
- oocyst in % of inf. control ac. (Eimeria acervulina; Table 1, 100 ppm in feed): 8%
- oocyst in % of inf. control max. (Eimeria maxima; Table 1, 25 ppm in feed): 0%
- oocyst in % of inf. control max. (Eimeria maxima; Table 1, 50 ppm in feed): 0%
- oocyst in % of inf. control max. (Eimeria maxima; Table 1, 100 ppm in feed): 0%
- oocyst in % of inf. control ten. (Eimeria tenella; Table 1, 25 ppm in feed): 100%
- oocyst in % of inf. control ten. (Eimeria tenella; Table 1, 50 ppm in feed): 13%
- oocyst in % of inf. control ten. (Eimeria tenella; Table 1, 100 ppm in feed): 100%
- % efficacy tot. ([1]; Table 1, 25 ppm in feed): 45%
- mortality % ([1]; Table 1, 25 ppm in feed): 33%
- oocyst in % of inf. control tot. ([1]; Table 1, 25 ppm in feed): 66%
- weight % of not inf. control ([1]; Table 1, 25 ppm in feed): 36%
- dropping scores ([1]; Table 1, 25 ppm in feed): 6
- lesion score ([1]; Table 1, 25 ppm in feed): 6
- mortality n ([1]; Table 1, 25 ppm in feed): 1/3
- % efficacy tot. ([1]; Table 1, 50 ppm in feed): 36%
- mortality % ([1]; Table 1, 50 ppm in feed): 33%
- oocyst in % of inf. control tot. ([1]; Table 1, 50 ppm in feed): 19%
- weight % of not inf. control ([1]; Table 1, 50 ppm in feed): 81%
- dropping scores ([1]; Table 1, 50 ppm in feed): 6
- lesion score ([1]; Table 1, 50 ppm in feed): 6
- mortality n ([1]; Table 1, 50 ppm in feed): 1/3
- % efficacy tot. ([1]; Table 1, 100 ppm in feed): 24%
- mortality % ([1]; Table 1, 100 ppm in feed): 33%
- oocyst in % of inf. control tot. ([1]; Table 1, 100 ppm in feed): 36%
- weight % of not inf. control ([1]; Table 1, 100 ppm in feed): 30%
- dropping scores ([1]; Table 1, 100 ppm in feed): 6
- lesion score ([1]; Table 1, 100 ppm in feed): 6
- mortality n ([1]; Table 1, 100 ppm in feed): 1/3

SMILES: CC[C@@H](C(=O)[C@@H](C)[C@@H](O)[C@H](C)[C@@H]1O[C@@H]([C@@H](CC)C(=O)O)CC[C@@H]1C)[C@H]1O[C@]2(C=C[C@@H](O)[C@]3(CC[C@@](C)([C@H]4CC[C@](O)(CC)[C@H](C)O4)O3)O2)[C@H](C)C[C@@H]1C [Sal., Salinomycin, reference compound]
- oocyst in % of inf. control ac. (Eimeria acervulina; Table 3, 60 ppm in feed): 6%
- oocyst in % of inf. control max. (Eimeria maxima; Table 3, 60 ppm in feed): 0%
- oocyst in % of inf. control ten. (Eimeria tenella; Table 3, 60 ppm in feed): 31%
- mortality % ([1]; Table 3, 15 ppm in feed): 100%
- mortality n ([1]; Table 3, 15 ppm in feed): 3/3
- mortality % ([1]; Table 3, 30 ppm in feed): 100%
- mortality n ([1]; Table 3, 30 ppm in feed): 3/3
- % efficacy tot. ([1]; Table 3, 60 ppm in feed): 67%
- mortality % ([1]; Table 3, 60 ppm in feed): 0%
- oocyst in % of inf. control tot. ([1]; Table 3, 60 ppm in feed): 12%
- weight % of not inf. control ([1]; Table 3, 60 ppm in feed): 106%
- dropping scores ([1]; Table 3, 60 ppm in feed): 6
- lesion score ([1]; Table 3, 60 ppm in feed): 1.3
- mortality n ([1]; Table 3, 60 ppm in feed): 0/3
